Test results as given in article PMC12214830, “The human RIF1-Long isoform interacts with BRCA1 to promote recombinational fork repair under DNA replication stress” (Nature Communications, 2025).

Legend:
GFP-RIF1-L-pp1bs foci = test: co-localisation of RIF1-L-pp1bs foci with BRCA1, γH2AX, RAD51, HeLa cells; assay type: cell-based, human; details: HU 4 mM 24 h
Description: Cells were grown on glass coverslips and treated as desired. Cells were then permeabilized with 0.5% TritonX-100 in PBS for 7 min on ice, and fixed with 4% w/v formaldehyde solution (Sigma HT5012) for 10 min at room temperature (RT). After fixation, coverslips were blocked with 3% BSA in PBS (RT, 1 h), incubated with primary antibodies (RT, 2 h), washed with PBS three times and incubated with secondary antibodies (RT, 1 h). Primary antibodies used for immunofluorescence include anti-γH2A.X (20E3) (Cell Signalling Technology, 9718. 1:500); anti-RPA32/RPA2 (9H8) (Abcam, ab2175. 1:200); anti-RAD51 (H92) (Santa Cruz Biotechnology, sc-8349. 1:100); anti-BrdU (B44) (BD Biosciences, 347580. 1:100); Coverslips were then mounted on glass slides with mounting medium with DAPI. Images were captured by either standard (Zeiss Axio Imager) or confocal (Zeiss LSM-880) microscopy. Fluorescence signal intensities within each nucleus were analysed by CellProfiler software with custom-made pipelines. Co-localisation analyses were performed with custom-made CellProfiler pipelines. Briefly, nuclei were identified and used to create masks. Nuclear RIF1-L-pp1bs, BRCA1, γH2AX, RAD51 foci were identified as objects using Otsu thresholding. ‘Relate objects’ function (defining RIF1-L-pp1bs foci as parent object and foci of other proteins as children object) was used to measure the percentage of RIF1-L-pp1bs foci co-localised with other proteins.

RIF1-L phosphoS2265 = test: Western blot, RIF1-L phosphoS2265, HeLa cells; assay type: cell-based, human; details: HU 4 mM 24 h
Description: Cells were harvested in 10 mM Tris-HCl pH 7.5, 2 mM EDTA buffer and lysed with laemmli sample buffer (Bio-Rad, 1610737, supplemented with 5% β-mercaptoethanol). Samples were heated at 95 °C for 15 min and centrifuged at 13,000 × g for 15 min. Protein concentrations were measured by RC DC Protein Assay (Bio-Rad, 5000122). Equal amounts of total proteins for each sample were separated in Mini-PROTEAN TGX Stain-free Precast Gels (Bio-Rad) by SDS-PAGE. Gels were at this stage imaged with the ChemiDoc Touch Imaging System (Bio-Rad) using the ‘Protein gel – Stain free’ module to obtain stain-free gel images. Proteins on gel were transferred to PVDF membranes (Bio-Rad, 1704274) using the Trans-Blot Turbo Blotting System (Bio-Rad). Membranes were blocked in 3% BSA in TBS-T (1x TBS supplemented with 0.1% Tween-20) at RT for 1 h, followed by incubation with primary antibodies overnight at 4 °C. Membranes were washed with TBS-T and then incubated with secondary antibodies for 1 h at RT. The blots were developed with Clarity ECL reagents (Bio-Rad, 1705060) and imaged with the ChemiDoc Touch Imaging System (Bio-Rad). Primary antibodies used for western blotting include anti-RIF1 (Bethyl Laboratories, A300-568A. 1:5000); anti-RIF1-L-Phospho-S2265 (amsbio, custom. 1:5000); anti-BRCA1 (D-9) (Santa Cruz Biotechnology, sc-6954. 1:1000); anti-BARD1 (Bethyl Laboratories, A300-263A. 1:1000); anti-53BP1 (Novus Biologicals, NB100-94. 1:5000); anti-PP1α (G4) (Santa Cruz Biotechnology, sc-271762. 1:1000); anti-Tubulin (YOL1/34) (Santa Cruz Biotechnology, sc-53030. 1:4000); anti-FLAG (M2) (Sigma-Aldrich, F1804. 1:2000); anti-GFP (Chromotek, 3h9. 1:2000); anti-RFP (Chromotek, 5f8. 1:2000). Uncropped and unprocessed Western Blot images are provided in the Source Data file.

NC(=O)NO [HU, hydroxyurea]
RIF1-L-pp1bs foci co-localised with RAD51 and BRCA1 (GFP-RIF1-L-pp1bs foci): ~ 20%
RIF1-L-pp1bs foci colocalised with both BRCA1 and γH2AX (GFP-RIF1-L-pp1bs foci): Approximately 40%
RIF1-L-pp1bs foci overlapping BRCA1 signal (GFP-RIF1-L-pp1bs foci): 50–60%
RIF1-L-pp1bs foci overlapping γH2AX foci (GFP-RIF1-L-pp1bs foci): ~ 50%
RIF1-L phosphoS2265 western blot signal (RIF1-L phosphoS2265): reduced RIF1-L phosphoS^2265 signal
